Values quoted from earlier work as cited in US20240423997A1, “METHOD OF TREATING AMYOTROPHIC LATERAL SCLEROSIS” (priority 2021, published 2024).

Details: in vivo; Shibuya 2001; cited from earlier work

## O=S(=O)(c1cccc2c(O)nccc12)N1CCCNCC1 [M3, hydroxyfasudil]
  half-life: about 8 hours
